Values of other authors, collected in patent publication US10441534B2, “Method for treating gynecological diseases” (PregLem SA, priority 2012, dated 2019).

Legend:
[1] = once daily UPA 5 mg tablets, plasma
uterine fibroids = details: three months treatment period

## CC(=O)O[C@]1(C(C)=O)CC[C@H]2[C@@H]3CCC4=CC(=O)CCC4=C3[C@@H](c3ccc(N(C)C)cc3)C[C@@]21C [ulipristal acetate, 17α-acetoxy-11β-(4-(N,N-dimethylamino)-phenyl)-19-norpregna-4,9-diene-3,20-dione]
[1]
  UPA Cmax: about 25 ng/mL
  UPA steady state concentrations: about 3 ng/mL
Uterine fibroids
  efficacy in patient with uterine fibroids: efficient on the control of bleeding, reduction of fibroids volume and improvement of the patient quality of life
